Among the data in publication PMC12040169 (PLOS Biology, 2025) are viability values, retold here.

Usually viability stands for a read-out of living cells in per cent, often relative to untreated cells.

A short description of the series: in vitro. The following applies: human, hela cells, % viability.

Consider `CSc1nc2sc3c(c2c(=O)n1-c1ccccc1C)CC(C)(C)OC3` [CBK091875], for which the viability at 28.5 h, 10 µM came to 99.1%.
In the case of `C=CCn1cc(CN2CCc3nc(C)[nH]c(=O)c3C2)c2ccccc21` [CBK282376], the viability at 28.5 h, 10 µM was found to be 85.9%.
On the same count and under the same terms, the result for `CN(C)c1nc(-c2ccc3c(c2)CCCN3S(C)(=O)=O)cs1` [CBK305016] reads 87.1%.
For `CC(C)(C)OC(=O)N1CCC2(CC1)OCc1cc(-c3cccc(OCC(=O)Nc4ccccc4)c3)ccc1O2` [CBK105255], for the setting “bulk resorufin, single well”, the viability at 28.5 h, 10 µM was determined as 99.6%.
For `O=C(NCc1ccco1)c1nn(-c2nc3ccccc3s2)c2ccccc12` [CBK048482], the viability at 28.5 h, 10 µM worked out at 97.4%.
Still for that read-out and setting: the result for `Cc1ccc(C(=O)NC2CCCCC2)c(N2CCOCC2)n1` [CBK076388] reads 96.5%.
Same read-out and setting: the figure for `Cc1cc(C(=O)N2CCc3c(sc4ncnc(N)c34)C2)sc1C` [CBK306420] is 99.4%; for `CCc1nn(Cc2ccccn2)c(=O)c2cc3sccc3n12` [CBK284074] it is 46.8%; for `OCCCNC(c1ccccc1)c1ccc(O)cc1` (centres unmarked) [CBK266329] it is 97.2%.
Same read-out and setting: the result for `Cc1nc2ccc(Br)cc2c(=O)n1Cc1cccs1` [CBK085890] reads 89.7%.
For `COc1cc(C(C)=O)ccc1OCCCN1CCC(O)(C(=O)c2cccc(C(F)(F)F)c2)CC1` [CBK024866C], the viability at 28.5 h, 10 µM is 103%.
`Nc1nc2c([C@H]3C[C@@H](O)[C@@H](CO)O3)c[nH]c2c(=O)[nH]1` [CBK201194]: the viability at 28.5 h, 10 µM amounted to 102%.
As for `C=CCNC(=O)CCn1c(C(C)C)cc2cccnc21` [CBK283289], the viability at 28.5 h, 10 µM amounted to 105%.
As for `CC(=O)Nc1nc(OCCOc2ccccc2)cnc1-c1cnn(C)c1` [CBK145425], the viability at 28.5 h, 10 µM worked out at 92.6%.
The same measure, in the same setting: the result for `CCn1c(=O)[nH]c2cc(C(=O)NCCc3ccccc3)ccc2c1=O` [CBK265773] reads 95.2%.
Still for that read-out and setting: the result for `O=c1c2sc(-c3ccc(F)cc3)cc2ncn1CC1(O)CCCNC1` (centres unmarked) [CBK306525] reads 88.4%; that for `COc1ccc(-c2cc(C(=O)Nc3nccs3)cnc2-c2ccc(Cl)cc2)cc1` [CBK037553], 87.4%.
The same measure, in the same setting: the figure for `CN(C)S(=O)(=O)N(CC(=O)NCc1ccccc1Cl)c1ccccc1` [CBK269081] is 103%; for `Cc1ccc(C(C)C)c(OC(=O)c2ccc3nccnc3c2)c1` [CBK269114] it is 62.7%; for `CNC(=O)c1nn(CCCc2ccc(OC)cc2)c2ccccc12` [CBK105842] it is 109%.
As to `O=S(=O)(N1CCOCC1)N1CCCN(S(=O)(=O)N2CCOCC2)CC1` [CBK269068], the viability at 28.5 h, 10 µM turned out to be 103%.
`CC(=O)Nc1cccc(-c2nccnc2N2CCCCC2CCO)c1` (centres unmarked) [CBK036591]: the viability at 28.5 h, 10 µM is 101%.
`CC(=O)c1ccc(CN2CCCN(S(=O)(=O)c3ccc(C(F)(F)F)cc3Cl)CC2)cc1` [CBK063106]: the viability at 28.5 h, 10 µM was determined as 104%.
`O=C(Nc1cccc(Cl)c1Cl)N1CCC(n2c(=O)[nH]c3ccccc32)CC1` [CBK149856]: the viability at 28.5 h, 10 µM is 94.6%.
On the same count and under the same terms, the result for `COc1ccc2[nH]cc(CCNC(=O)N3CCN(CCN4CCOCC4)CC3)c2c1` [CBK155818] reads 101%; that for `CCNC(=O)C1(Cc2ccccc2-c2ccccc2)CCN(C(=O)c2cccc(F)c2)CC1` [CBK285689], 88.7%; that for `OCc1ccc(CN2C[C@H](O)C[C@H]2c2nc(-c3cnccn3)no2)o1` [CBK288832], 91.9%.
The same measure, in the same setting: the result for `O=C(NCCNCc1ccco1)c1ccc(F)cc1` [CBK266873G] reads 103%.
As for `COc1ccccc1C1OC(=O)CC1C(=O)N1CCC(C(C)=O)(c2ccccc2)CC1` (centres unmarked) [CBK091324], for the setting “bulk resorufin, single well”, the viability at 28.5 h, 10 µM came to 104%.
Consider `Cc1ccc(CN(CCCn2ccnc2)Cc2nc3ccccc3[nH]2)o1` [CBK283103], for which the viability at 28.5 h, 10 µM amounted to 90.9%.
On to `Cc1ccc(-n2ncc3c2NC(=O)N2CCN=C32)cc1` [CBK284345], for which the viability at 28.5 h, 10 µM turned out to be 85.5%.
Still for that read-out and setting: the figure for `Cc1nnc2n1-c1ccc(Cl)cc1C(c1ccccc1)=NN2CCCC(=O)c1ccc(F)cc1` [CBK016076] is 86.6%.
In the case of `C(=C\C1Nc2ccccc2-c2nnc(SCc3ccccc3)nc2O1)/c1ccccc1` (centres unmarked) [CBK264447], the viability at 28.5 h, 10 µM came to 112%.
Turning to `COc1cccc(CN2CC[C@H]3[C@@H](C2)[C@H](c2ccsc2)CN3C(=O)c2ccccc2)c1` [CBK285616], the viability at 28.5 h, 10 µM was determined as 97.5%.
On the same count and under the same terms, the figure for `O=[N+]([O-])c1ccccc1OCCNCc1ccccc1` [CBK265511G] is 101%.
Regarding `Cn1c(CN2CCN(C(=O)NC3CCCCC3)CC2)nc2cc([N+](=O)[O-])ccc21` [CBK268266], the viability at 28.5 h, 10 µM is 97.1%.
As for `COc1ccc(-c2cc(N3CCC(N4CCCCC4)CC3)ncn2)cc1OC` [CBK037752], the viability at 28.5 h, 10 µM amounted to 90%.
In the case of `CC(C)NC(=O)N[C@H]1CCN2C(=O)c3cc(-c4ccccc4F)ccc3NC(=O)[C@H]12` [CBK289335], the viability at 28.5 h, 10 µM turned out to be 84.2%.
In the case of `COc1ccccc1N1CCn2c1nc1c2c(=O)n(CCN2CCOCC2)c(=O)n1C` [CBK269265], the viability at 28.5 h, 10 µM came to 93.4%.
As for `CCOC(=O)c1ccccc1NC(=O)N[C@@H]1CC[C@@]2(c3ccc(OC)c(OC)c3)CCN(C)[C@H]2C1` [CBK047494T], the viability at 28.5 h, 10 µM turned out to be 94.9%.
In the case of `COc1ccc(Cl)cc1S(=O)(=O)N1CCN(Cc2ccc3c(c2)OCO3)CC1` [CBK266913], the viability at 28.5 h, 10 µM amounted to 98.5%.
Regarding `O=C(c1ccno1)n1nccc1-c1cc(-c2ccccc2)no1` [CBK022074], the viability at 28.5 h, 10 µM worked out at 101%.
On the same count and under the same terms, the figure for `O=C(O)CCN1CCCCC1` [CBK012168C] is 103%.
In the case of `CCS(=O)(=O)NC1CCN(c2nc(C(F)(F)F)nc3ccsc23)CC1` [CBK304593], the viability at 28.5 h, 10 µM was 108%.
Same read-out and setting: the figure for `CC(Cn1cc(Cl)cn1)C(=O)NC(C)C1CC2CCC1C2` (centres unmarked) [CBK281650] is 110%; for `O=C(Oc1ccc(F)cc1C(=O)/C=C/c1cccs1)c1ccc([N+](=O)[O-])cc1` [CBK264925] it is 91.2%; for `Cc1noc(C)c1NC(=O)c1ccccn1` [CBK200299] it is 95.6%.
Take `CCCSc1nnc(-c2c(Cl)c(CC)nn2C)s1` [CBK026135]: the viability at 28.5 h, 10 µM was 104%.
With `COCCSc1nc2c(c(=O)[nH]c(=O)n2C)n1CCCc1ccccc1` [CBK140504], the viability at 28.5 h, 10 µM worked out at 90.9%.
Still for that read-out and setting: the figure for `COCCNC(=O)C(C)SCc1ccccc1` (centres unmarked) [CBK028889] is 86.1%.
On to `COc1ccc(-c2oc3ccccc3c(=O)c2OCC(=O)O)cc1` [CBK269232], for which the viability at 28.5 h, 10 µM turned out to be 98.7%.
Consider `COc1ccc(C(Nc2ccnc(OC)c2C#N)[C@H]2C[C@@H](O)C2)cn1` (some centres unmarked) [CBK306980], for which the viability at 28.5 h, 10 µM was determined as 84.6%.
In the case of `COc1ccc(C(c2ccccn2)N(C)C(=O)C2CCN(S(=O)(=O)C(C)C)CC2)cc1` (centres unmarked) [CBK060280], the viability at 28.5 h, 10 µM turned out to be 88.2%.
On the same count and under the same terms, the figure for `COc1ccc(Br)cc1CN1CCN(Cc2cccc([N+](=O)[O-])c2)CC1` [CBK263347] is 91.6%.
Same read-out and setting: the figure for `COc1cc([C@@H]2c3cc4c(cc3[C@H](O)[C@H]3COC(=O)[C@@H]23)OCO4)cc(OC)c1OC` [CBK051004] is 36.3%; for `N=c1n(CCN2CCCCC2)c2ccccc2n1CC(O)COc1ccc(Cl)cc1` (centres unmarked) [CBK262512C] it is 89.7%.
